The test system of test [1] is P. aeruginosa ATCC 27853 (APAE001). As to the kind of experiment: MIC assay, CLSI broth microdilution. It counts as cell-based. Conditions: Pseudomonas aeruginosa, ATCC27853, read-out: MIC APAE001. Summed up:
(§1)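 Broth microdilution per CLSI M7-A7, with serial two-fold compound dilutions in Mueller Hinton Broth mixed 1:1 with inoculum. Colonies from a previous-day agar plate were suspended in saline to a final 5×10^5 CFU/mL. Plates were incubated 20 hours at 35° C. in ambient air.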
In general terms: Dilution methods test growth across graded concentrations, often in twofold steps.

The subject of test [2] is E. coli ATCC 25922 (AECO001). As to the kind of experiment: MIC assay, CLSI broth microdilution. Format: cell-based. Conditions: Escherichia coli, ATCC25922, read-out: MIC AECO001. Summed up: as §1

≈ marks a conversion by molar mass, not a printed value.

For `CNCC(=O)N[C@@H]1CC=C(CN)O[C@@H]1O[C@H]1[C@H](O)[C@@H](O[C@H]2OC[C@](C)(O)[C@H](NC)[C@H]2O)[C@H](NC(=O)[C@@H](O)CCN)C[C@@H]1N` [Example 86, 2′-(N-methyl-amino-acetyl)-1-(4-amino-2(S)-hydroxy-butyryl)-sisomicin], the MIC in test [1] and in test [2] was 1 to 16 µg/mL (≈ 1.61 to 25.8 µM) throughout.

For the compound `CN[C@@H]1[C@@H](O)[C@@H](O[C@@H]2[C@@H](O)[C@H](O[C@H]3OC(CN)=CC[C@H]3NC(=O)CN)[C@@H](N)C[C@H]2NC(=O)[C@@H](O)CCN)OC[C@]1(C)O` [Example 87, 2′-(2-Amino-acetyl)-1-(4-amino-2(S)-hydroxy-butyryl)-sisomicin], the MIC in test [1] and in test [2] was 1 to 16 µg/mL (≈ 1.65 to 26.4 µM) each time.

As for `CN[C@@H]1[C@@H](O)[C@@H](O[C@@H]2[C@@H](O)[C@H](O[C@H]3OC(CN)=CC[C@H]3NC(=O)C(C)N)[C@@H](N)C[C@H]2NC(=O)[C@@H](O)CCN)OC[C@]1(C)O` (stereo partly drawn) [Example 88, 2′-(2-Amino-propionyl)-1-(4-amino-2(S)-hydroxy-butyryl)-sisomicin], the MIC in test [1] and in test [2] was 1 to 16 µg/mL (≈ 1.61 to 25.8 µM) in each case.

Turning to `CN[C@@H]1[C@@H](O)[C@@H](O[C@@H]2[C@@H](O)[C@H](O[C@H]3OC(CN)=CC[C@H]3NC(=O)C(O)CN)[C@@H](N)C[C@H]2NC(=O)[C@@H](O)CCN)OC[C@]1(C)O` (stereo partly drawn) [Example 89, 2′-(3-Amino-2-hydroxy-propionyl)-1-(4-amino-2(S)-hydroxy-butyryl)-sisomicin], the minimum inhibitory concentration (MIC) in test [1] was 1 to 16 µg/mL (≈ 1.57 to 25.2 µM); in test [2] it was below 1 µg/mL.

With `CN[C@@H]1[C@@H](O)[C@@H](O[C@@H]2[C@@H](O)[C@H](O[C@H]3OC(CN)=CC[C@H]3NC(=O)C3CCCN3)[C@@H](N)C[C@H]2NC(=O)[C@@H](O)CCN)OC[C@]1(C)O` (stereo partly drawn) [Example 90], the MIC in test [1] was 1 to 16 µg/mL (≈ 1.55 to 24.8 µM); in test [2], below 1 µg/mL.

In the case of `CN[C@@H]1[C@@H](O)[C@@H](O[C@@H]2[C@@H](O)[C@H](O[C@H]3OC(CN)=CC[C@H]3NCCCN)[C@@H](N)C[C@H]2NC(=O)[C@@H](O)CCN)OC[C@]1(C)O` [Example 91, 2′-(3-Amino-propyl)-1-(4-amino-2(S)-hydroxy-butyryl)-sisomicin], the minimal inhibitory concentration (MIC) in test [1] and in test [2] was below 1 µg/mL throughout.

Take `CN[C@@H]1[C@@H](O)[C@@H](O[C@@H]2[C@@H](O)[C@H](O[C@H]3OC(CN)=CC[C@H]3NC(=O)CC3CNCCO3)[C@@H](N)C[C@H]2NC(=O)[C@@H](O)CCN)OC[C@]1(C)O` (stereo partly drawn) [Example 92, 2′-(Morpholin-2-yl-acetyl)-1-(4-amino-2(S)-hydroxy-butyryl)-sisomicin]: the MIC was above 16 µg/mL in test [1] and below 1 µg/mL in test [2].

As to `CN[C@@H]1[C@@H](O)[C@@H](O[C@@H]2[C@@H](O)[C@H](O[C@H]3OC(CN)=CC[C@H]3NS(=O)(=O)CCN)[C@@H](N)C[C@H]2NC(=O)[C@@H](O)CCN)OC[C@]1(C)O` [Example 93, 2′-(2-Amino-ethyl-sulfonamide)-1-(4-amino-2(S)-hydroxy-butyryl)-sisomicin], the MIC in test [1] is 1 to 16 µg/mL (≈ 1.52 to 24.4 µM); in test [2], below 1 µg/mL.

Regarding `CN[C@@H]1[C@@H](O)[C@@H](O[C@@H]2[C@@H](O)[C@H](O[C@H]3OC(CN)=CC[C@H]3NCC(C)(C)CN(C)C)[C@@H](N)C[C@H]2NC(=O)[C@@H](O)CCN)OC[C@]1(C)O` [Example 94, 2′-(N,N-Dimethyl-2,2-dimethyl-3-amino-propyl)-1-(4-amino-2(S)-hydroxy-butyryl)-sisomicin], the MIC in test [1] was above 16 µg/mL; in test [2], 1 to 16 µg/mL (≈ 1.51 to 24.2 µM).

Regarding `CN[C@@H]1[C@@H](O)[C@@H](O[C@@H]2[C@@H](O)[C@H](O[C@H]3OC(CN)=CC[C@H]3NC[C@H](C)N)[C@@H](N)C[C@H]2NC(=O)[C@@H](O)CCN)OC[C@]1(C)O` [Example 95, 2′-(2(S)-Amino-propyl)-1-(4-amino-2(S)-hydroxy-butyryl)-sisomicin], the MIC was above 16 µg/mL in test [1] and below 1 µg/mL in test [2].

Regarding `CN[C@@H]1[C@@H](O)[C@@H](O[C@@H]2[C@@H](O)[C@H](O[C@H]3OC(CN)=CC[C@H]3NCC(N)CO)[C@@H](N)C[C@H]2NC(=O)[C@@H](O)CCN)OC[C@]1(C)O` (stereo partly drawn) [Example 97, 2′-(2-Amino-propanol)-1-(4-amino-2(S)-hydroxy-butyryl)-sisomicin], the MIC was 1 to 16 µg/mL (≈ 1.61 to 25.7 µM) in test [1] and below 1 µg/mL in test [2].

Take `CN[C@@H]1[C@@H](O)[C@@H](O[C@@H]2[C@@H](O)[C@H](O[C@H]3OC(CN)=CC[C@H]3NCCO)[C@@H](N)C[C@H]2NC(=O)[C@@H](O)CCN)OC[C@]1(C)O` [Example 98, 2′-(2-Hydroxy-ethyl)-1-(4-amino-2(S)-hydroxy-butyryl)-sisomicin]: the MIC in test [1] and in test [2] was 1 to 16 µg/mL (≈ 1.69 to 27 µM) throughout.

With `CN[C@@H]1[C@@H](O)[C@@H](O[C@@H]2[C@@H](O)[C@H](O[C@H]3OC(CN)=CC[C@H]3NC(=O)C(N)CCCN)[C@@H](N)C[C@H]2NC(=O)[C@@H](O)CCN)OC[C@]1(C)O` (stereo partly drawn) [Example 99, 2′-(2,5-Diamino-pentoyl)-1-(4-amino-2(S)-hydroxy-butyryl)-sisomicin], the MIC in test [1] and in test [2] was 1 to 16 µg/mL (≈ 1.51 to 24.1 µM) in each case.

In the case of `CN[C@@H]1[C@@H](O)[C@@H](O[C@@H]2[C@@H](O)[C@H](O[C@H]3OC(CN)=CC[C@H]3NCC(O)CO)[C@@H](N)C[C@H]2NC(=O)[C@@H](O)CCN)OC[C@]1(C)O` (stereo partly drawn) [Example 100, 2′-(2-Hydroxy-propanol)-1-(4-amino-2(S)-hydroxy-butyryl)-sisomicin], the MIC was above 16 µg/mL in test [1] and 1 to 16 µg/mL (≈ 1.61 to 25.7 µM) in test [2].

Take `CN[C@@H]1[C@@H](O)[C@@H](O[C@@H]2[C@@H](O)[C@H](O[C@H]3OC(CN)=CC[C@H]3NCC(O)CN)[C@@H](N)C[C@H]2NC(=O)[C@@H](O)CCN)OC[C@]1(C)O` (stereo partly drawn) [Example 101, 2′-(2-Hydroxy-3-amino-propyl)-1-(4-amino-2(S)-hydroxy-butyryl)-sisomicin]: the values for the MIC in test [1] and in test [2] were 1 to 16 µg/mL (≈ 1.61 to 25.7 µM) and below 1 µg/mL, respectively.

With `CN[C@@H]1[C@@H](O)[C@@H](O[C@@H]2[C@@H](O)[C@H](O[C@H]3OC(CN)=CC[C@H]3NCCCCN)[C@@H](N)C[C@H]2NC(=O)[C@@H](O)CCN)OC[C@]1(C)O` [Example 102, 2′-(4-Amino-butyl)-1-(4-amino-2(S)-hydroxy-butyryl)-sisomicin], the MIC in test [1] is 1 to 16 µg/mL (≈ 1.61 to 25.8 µM); in test [2] it was below 1 µg/mL.

For `CN[C@@H]1[C@@H](O)[C@@H](O[C@@H]2[C@@H](O)[C@H](O[C@H]3OC(CN)=CC[C@H]3NC[C@H]3C[C@H](N)C3)[C@@H](N)C[C@H]2NC(=O)[C@@H](O)CCN)OC[C@]1(C)O` [Example 104, 2′-(Methyl-trans-3-amino-cyclobutyl)-1-(4-amino-2(S)-hydroxy-butyryl)-sisomicin], the minimum inhibitory concentration (MIC) in test [1] is 1 to 16 µg/mL (≈ 1.58 to 25.3 µM); in test [2], below 1 µg/mL.

Consider `CN[C@@H]1[C@@H](O)[C@@H](O[C@@H]2[C@@H](O)[C@H](O[C@H]3OC(CNC(=N)N)=CC[C@H]3NC(=N)N)[C@@H](N)C[C@H]2N)OC[C@]1(C)O` [Example 105, 6′,2′-bis-Guanidinium-sisomicin], for which the minimum inhibitory concentration (MIC) in test [1] and in test [2] was above 16 µg/mL throughout.

Turning to `CN[C@@H]1[C@@H](O)[C@@H](O[C@@H]2[C@@H](O)[C@H](O[C@H]3OC(CNCCO)=CC[C@H]3NC(=N)N)[C@@H](N)C[C@H]2N)OC[C@]1(C)O` [Example 106, 6′-(2-Hydroxy-ethyl)-2′-guanidinium-sisomicin], the MIC in test [1] was 1 to 16 µg/mL (≈ 1.87 to 30 µM); in test [2], below 1 µg/mL.

With `CN[C@@H]1[C@@H](O)[C@@H](O[C@@H]2[C@@H](O)[C@H](O[C@H]3OC(CNC[C@H]4C[C@H](N)C4)=CC[C@H]3NC(=N)N)[C@@H](N)C[C@H]2N)OC[C@]1(C)O` [Example 107, 6′-(Methyl-trans-3-amino-cyclobutyl)-2′-guanidinium-sisomicin], the minimal inhibitory concentration (MIC) was below 1 µg/mL in test [1] and 1 to 16 µg/mL (≈ 1.75 to 27.9 µM) in test [2].

Consider `CNCC1=CC[C@@H](NC(=N)N)[C@@H](O[C@H]2[C@H](O)[C@@H](O[C@H]3OC[C@](C)(O)[C@H](NC)[C@H]3O)[C@H](N)C[C@@H]2N)O1` [Example 108, 6′-Methyl-2′-guanidinium-sisomicin], for which the figures for the MIC in test [1] and in test [2] were 1 to 16 µg/mL (≈ 1.99 to 31.8 µM) and below 1 µg/mL, respectively.

The MIC is the lowest concentration found to suppress growth.

These data come from patent US20190374563A1, “TREATMENT OF KLEBSIELLA PNEUMONIAE INFECTIONS WITH ANTIBACTERIAL AMINOGLYCOSIDE COMPOUNDS” (Achaogen, Inc., priority 2009, published 2019).
